The values below come from PMC8694318, “Discovery of pyrano[2,3-d]pyrimidine-2,4-dione derivatives as novel PARP-1 inhibitors: design, synthesis and antitumor activity” (RSC Advances, 2021).

Each structure is given as a SMILES string. Like-named read-outs stand apart in the source and are kept apart here.

The target of one experiment is T1, PARP-1 (Homo sapiens, UniProt P09874).
T1 construct: purchased BPS Bioscience 80580
Kind of experiment: In vitro PARP-1 inhibitory assay (colorimetric 96-well kit, BPS Bioscience). It is filed as biochemical. How it is done:
Briefly, the histone mixture was diluted 1 : 5 with 1× PBS, 50 μl of histone solution was added to each well and incubated at 4 °C overnight. The plate was washed three times using 200 μl PBST buffer (1× PBS containing 0.05% Tween-20) per well. Liquid was removed from the wells by tapping the strip wells on clean paper towels. To each well, 200 μl of blocking buffer was added, followed by 60–90 min incubation at room temperature. Then 25 μl of PARP master mixture (consisting of 2.5 μl 10× PARP buffer + 2.5 μl 10× PARP assay mixture + 5 μl activated DNA + 15 μl distilled water) was added to each well. Olaparib was used as a positive control. 5 μl of inhibitor solution of each well labeled as “test inhibitor” was added. For the “positive control” and “blank”, 5 μl of the same solution without inhibitor was added. 1× PARP buffer was prepared by adding 1 part of 10× PARP buffer to 9 parts H2O (v/v), 20 μl of 1× PARP buffer was added to the wells designated as “blank”. The amount of PARP-1 required for the assay was then calculated. The reaction was initiated by adding 20 μl of diluted PARP1 enzyme to the wells designated “positive control” and “test inhibitor control”. The strip wells were incubated at room temperature for 1 hour. The strip wells were then washed three times with 200 μl PBST buffer. Then, 50 μl of 50 times diluted Streptavidin-HRP with blocking buffer was added to each well, and the strips were further incubated at room temperature for 30 min. After washing the wells three times with 200 μl PBST buffer, HRP colorimetric substrate was added to each well and the plate was incubated at the room temperature until a blue color is developed in the positive control well. Then reaction was quenched with […] per well of 2 M sulfuric acid, and absorbance at 450 nm was determined. Carrier solvents were assayed as negative controls. All assays were performed in triplicate. To determine the IC50 value for each inhibitor, the average absorbance of each inhibitor concentration was plotted against the log of the concentration of each respective inhibitor and the IC50 value for each plot was obtained using computer-assisted non-linear regression analyses. Data presented are the results of at least two independent experiments done in triplicate. The results of these studies are presented as mean IC50 (nM).[24]

Another experiment relates to MCF-7 cells. Put plainly: Cell proliferation inhibition (MTT) assay, MCF-7. The class given is cell-based. Conditions: Homo sapiens, MCF7, 96 h incubation. How it is done: (§1) We used the MTT [3-(4,5-dimethylthiazol-2-yl)-2,5-diphenyltetrazoliumbromide] (Biomatik, Wilmington, DE) assay to measure cell growth inhibition, which is based on the conversion of MTT to formazan crystals by mitochondrial dehydrogenases.[25] Only in live cells, mitochondrial enzymes can transform MTT into insoluble formazan. After incubated with serially diluted inhibitors for 96 h, cell cultures were incubated with MTT solution (5 mg ml^−1) for 4 h at 37 °C. Then discard the medium and DMSO was added to solubilize the reaction product formazan by shaking for 10 min. Absorbance at 492 nm was measured with a microplate reader (Thermo, MK3). Cell viability was expressed as an IC50 value.

A further experiment relates to HCT116 cells. Put plainly: Cell proliferation inhibition (MTT) assay, HCT116. It is filed as cell-based. Conditions: Homo sapiens, HCT-116, 96 h incubation. As to the method:
as §1

Where [1] appears, read: colorimetric assay, mean of at least two independent experiments in triplicate, read-out: IC50 against PARP-1 (converted).

T1 sequence (P09874 whole entry): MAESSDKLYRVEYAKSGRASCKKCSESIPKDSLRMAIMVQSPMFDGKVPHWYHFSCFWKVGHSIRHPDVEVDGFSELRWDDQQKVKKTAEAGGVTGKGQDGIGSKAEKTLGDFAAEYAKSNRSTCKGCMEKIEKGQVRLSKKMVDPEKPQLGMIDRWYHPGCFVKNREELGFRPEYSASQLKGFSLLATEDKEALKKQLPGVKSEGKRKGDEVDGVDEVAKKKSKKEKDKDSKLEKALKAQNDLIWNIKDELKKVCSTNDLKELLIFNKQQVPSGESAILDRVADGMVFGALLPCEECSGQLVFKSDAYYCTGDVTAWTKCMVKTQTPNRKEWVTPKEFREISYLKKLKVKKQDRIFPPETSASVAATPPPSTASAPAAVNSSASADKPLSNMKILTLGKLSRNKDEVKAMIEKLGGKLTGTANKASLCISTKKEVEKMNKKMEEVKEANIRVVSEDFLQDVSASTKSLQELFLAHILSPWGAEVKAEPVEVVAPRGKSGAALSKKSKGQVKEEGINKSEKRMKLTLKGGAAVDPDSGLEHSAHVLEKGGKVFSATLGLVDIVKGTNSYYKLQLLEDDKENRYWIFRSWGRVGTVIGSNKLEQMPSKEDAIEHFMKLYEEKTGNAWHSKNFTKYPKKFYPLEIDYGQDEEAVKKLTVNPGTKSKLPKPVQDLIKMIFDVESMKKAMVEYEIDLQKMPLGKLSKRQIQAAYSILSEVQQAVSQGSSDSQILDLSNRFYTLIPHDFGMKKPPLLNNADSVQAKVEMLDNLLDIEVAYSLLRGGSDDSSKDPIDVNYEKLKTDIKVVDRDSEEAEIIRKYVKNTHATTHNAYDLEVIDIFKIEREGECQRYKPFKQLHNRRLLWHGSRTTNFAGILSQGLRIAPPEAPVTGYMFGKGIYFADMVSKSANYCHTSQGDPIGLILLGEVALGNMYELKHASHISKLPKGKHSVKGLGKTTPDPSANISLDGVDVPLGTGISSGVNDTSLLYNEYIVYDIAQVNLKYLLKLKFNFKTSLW

`N#CC1=C(N)Oc2[nH]c(=O)[nH]c(=O)c2C1c1cccs1` (centres unmarked) [Compound S1, 7-amino-2,4-dioxo-5-(thiophen-2-yl)-2,3,4,5-tetrahydro-1H-pyrano[2,3-d]pyrimidine-6-carbonitrile]: the values for the IC50 at PARP-1 (setting [1]), in the experiment with MCF-7 cells and with HCT116 cells were 49.1 ± 2.32 nM, 12680 ± 120 nM and 24100 ± 1140 nM, respectively.
On the same counts, the results for `Nc1nc(S)nc2c1Oc1[nH]c(=O)[nH]c(=O)c1C2c1cccs1` (centres unmarked) [Compound S2, 4-amino-2-mercapto-10-(thiophen-2-yl)-6,10-dihydro-7H-pyrano[2,3-d:5,6-d']dipyrimidine-7,9(8H)-dione] are 4.06 ± 0.18 nM, 2650 ± 50 nM and 9310 ± 340 nM.
On to `Nc1nn(-c2cc([N+](=O)[O-])ccc2[N+](=O)[O-])c2c1Oc1[nH]c(=O)[nH]c(=O)c1C2c1cccs1` (centres unmarked) [Compound S3, 3-amino-1-(2,5-dinitrophenyl)-9-(thiophen-2-yl)-5,9-dihydropyrazolo[3′,4':5,6]pyrano[2,3-d]pyrimidine-6,8(1H,7H)-dione], for which the IC50 (as a rule, the concentration at which inhibition is half-maximal) was 71.4 ± 4.12 nM on PARP-1, 3170 ± 1040 nM in the experiment with MCF-7 cells and 2800 ± 70 nM in the experiment on HCT116 cells.
On to `Nc1ncnc2c1Oc1[nH]c(=O)[nH]c(=O)c1C2c1cccs1` (centres unmarked) [Compound S4, 4-amino-10-(thiophen-2-yl)-6,10-dihydro-7H-pyrano[2,3-d:5,6-d']dipyrimidine-7,9(8H)-dione], for which the IC50 was 14.9 ± 1.03 nM on PARP-1 (setting [1]), 15.1 nM at PARP-1 (read-out: IC50 against PARP-1 (converted)), 870 ± 70 nM in the experiment on MCF-7 cells and 6380 ± 110 nM in the experiment on HCT116 cells.
For the molecule `O=c1[nH]c2c(c(=O)[nH]1)C(c1cccs1)c1[nH]c(=S)[nH]c(=S)c1O2` (centres unmarked) [Compound S5, 10-(thiophen-2-yl)-2,4-dithioxo-1,2,3,4,6,10-hexahydro-7H-pyrano[2,3-d:5,6-d']dipyrimidine-7,9(8H)-dione], the results for the IC50 on PARP-1 (setting [1]), with MCF-7 cells and with HCT116 cells were 11.1 ± 0.76 nM, 4950 ± 70 nM and 7410 ± 180 nM, respectively.
In the same order, the values of `CONC1=C(C#N)Oc2[nH]c(=O)[nH]c(=O)c2C1c1cccs1` (centres unmarked) [Compound S6, 6-(methoxyamino)-2,4-dioxo-5-(thiophen-2-yl)-2,3,4,5-tetrahydro-1H-pyrano[2,3-d]pyrimidine-7-carbonitrile] are 115 ± 7.22 nM, 3120 ± 110 nM and 2850 ± 30 nM.
On the same counts, the results for `O=c1[nH]c2c(c(=O)[nH]1)C(c1cccs1)c1[nH]c(=S)n(-c3ccccc3)c(=O)c1O2` (centres unmarked) [Compound S7, 3-phenyl-10-(thiophen-2-yl)-2-thioxo-2,3,6,10-tetrahydro-1H-pyrano[2,3-d:5,6-d']dipyrimidine-4,7,9(8H)-trione] are 3.61 ± 0.15 nM, 1280 ± 1120 nM and 46900 ± 1820 nM.
On to `NC1=CC(c2ccc([N+](=O)[O-])cc2)=NC2Oc3[nH]c(=O)[nH]c(=O)c3C(c3cccs3)C12` (centres unmarked) [Compound S8, 6-amino-8-(4-nitrophenyl)-5-(thiophen-2-yl)-1,5,5a,9a-tetrahydro-2H-pyrido[3′,2':5,6]pyrano[2,3-d]pyrimidine-2,4(3H)-dione], for which the IC50 at PARP-1 (setting [1]) was 15.8 ± 0.86 nM; in the experiment with MCF-7 cells, 660 ± 50 nM; in the experiment with HCT116 cells, 2760 ± 60 nM.
In the same order, the values of `CCO/C=N/C1=C(C#N)C(c2cccs2)c2c([nH]c(=O)[nH]c2=O)O1` (centres unmarked) [Compound S9, (E)-ethyl N-(6-cyano-2,4-dioxo-5-(thiophen-2-yl)-2,3,4,5-tetrahydro-1H-pyrano[2,3-d]pyrimidin-7-yl)formimidate] are 48.5 ± 3.25 nM, 8770 ± 150 nM and 2900 ± 40 nM.
In the same order, the values of `Cc1nc(O)c2c(n1)Oc1[nH]c(=O)[nH]c(=O)c1C2c1cccs1` (centres unmarked) [Compound S10, 6-hydroxy-8-methyl-5-(thiophen-2-yl)-1,5-dihydro-2H-pyrano[2,3-d:6,5-d']dipyrimidine-2,4(3H)-dione] are 16.2 ± 0.88 nM, 4480 ± 430 nM and 12100 ± 640 nM.
Regarding `CN[C@@H]1C[C@H]2O[C@@](C)([C@@H]1OC)n1c3ccccc3c3c4c(c5c6ccccc6n2c5c31)C(=O)NC4` [Staurosporine, reference compound], it took 6940 ± 210 nM to reach half-maximal inhibition in the experiment with HCT116 cells (IC50).
